Assay results reported in PubChem BioAssay (NCI).
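48-hour exposure; five concentrations; linearly interpolated endpoints. Definition used: TGI = concentration required for complete inhibition of growth.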

Legend:
Assay in all cases: inhibition of tumour cell growth, NCI panel, 48 h
A549 NSCLC = test system: A549 NSCLC
BT-549 breast = test system: BT-549 breast
HL-60(TB) leukemia = test system: HL-60(TB) leukemia
HOP-62 NSCLC = test system: HOP-62 NSCLC
HS 578T breast = test system: HS 578T breast
MOLT-4 leukemia = test system: MOLT-4 leukemia
NCI-H226 lung = test system: NCI-H226 lung
SF-295 CNS = test system: SF-295 CNS
SK-MEL-5 melanoma = test system: SK-MEL-5 melanoma
SN12C renal = test system: SN12C renal
TK-10 renal = test system: TK-10 renal

SMILES | TGI (A549 NSCLC) [µM] | TGI (BT-549 breast) [µM] | TGI (HL-60(TB) leukemia) [µM] | TGI (HOP-62 NSCLC) [µM] | TGI (HS 578T breast) [µM] | TGI (MOLT-4 leukemia) [µM] | TGI (NCI-H226 lung) [µM] | TGI (SF-295 CNS) [µM] | TGI (SK-MEL-5 melanoma) [µM] | TGI (SN12C renal) [µM] | TGI (TK-10 renal) [µM]
COc1ccc(OC)c(CSc2ccc(OC)c(OC)c2)c1 | > 100 | > 100 | > 100 | > 100 | > 100 | > 100 | > 100 | > 100 | > 100 | > 100 | > 100
Cc1ccc2c(=O)cc(Cc3cccs3)[nH]c2n1 | > 100 | > 100 | > 100 | > 100 | > 100 | > 100 | > 100 | > 100 | > 100 | > 100 | > 100
CC1(C)CC(O)C2=C(O1)C(=O)c1ncccc1C2=O (configuration not stated) | 23.4 | 3.18 | 4.15 | 3.38 | 6.56 | 4.55 | 3.74 | 3.35 | 3.1 | 3.68 | 20.1
Cc1ccc(S(=O)(=O)CN2C(=O)C(c3ccccc3)(c3ccccc3)C23OC(c2ccc(Cl)cc2)=CC3=O)cc1 (configuration not stated) | > 10 | > 10 | > 10 | > 10 | > 10 | > 10 | > 10 | > 10 | > 10 | > 10 | > 10
Cn1c(NNc2ccccc2)cc(=O)[nH]c1=O | > 100 | > 100 | > 100 | > 100 | > 100 | > 100 | > 100 | > 100 | 70.1 | > 100 | > 100
OCc1cc2c(ccc3sc4ccc5sc6ccc7ncccc7c6c5c4c32)s1 | 31.1 | 38.6 | 67.1 | 28.6 | 31.9 | 48.4 | > 100 | 27.7 | 11.8 | 26.8 | > 100
Cc1ccc(/C=N/n2c(Cc3ccccc3)n[nH]c2=O)cc1 | > 100 | > 100 | > 100 | > 100 | > 100 | > 100 | > 100 | > 100 | > 100 | > 100 | > 100
C=C1CCCC2[C@](C)(CC3=C(Cl)C(=O)C=C(OC)C3=O)C(C)CC[C@]12C (some centres not stated) | 11.1 | 11.4 | 10.3 | 13.5 | 26 | 6.99 | 14.7 | 14 | 12.5 | 12.5 | 11.6
C=CCNC(=S)N=Nc1c(O)n(CN2CCOCC2)c2ccc([N+](=O)[O-])cc12 | > 100 | > 100 | > 100 | > 100 | > 100 | > 100 | > 100 | > 100 | 84.6 | > 100 | 93.1
Cc1c(C)c(C)c(CC2(C)CSC2)c(CC2(C)CSC2)c1C | > 100 | > 100 | > 100 | > 100 | > 100 | > 100 | > 100 | > 100 | > 100 | > 100 | > 100
Nc1ccc2nc3c(nc2c1)C(=O)c1ccccc1-3 | > 100 | > 100 | > 100 | > 100 | > 100 | > 100 | > 100 | > 100 | > 100 | > 100 | > 100
CCCC(=O)NC(Nc1cc(C)ccn1)(C(=O)OCC)C(F)(F)F (configuration not stated) | > 100 | > 100 | > 100 | > 100 | > 100 | > 100 | > 100 | > 100 | > 100 | > 100 | > 100
CC(=O)OC(CN1CCN(c2ccccn2)CC1)Cn1sc2nc(C)cc(C)c2c1=O (configuration not stated) | 45.8 | 33.2 | 55.5 | 81.1 | 44.8 | > 100 | > 100 | > 100 | 26.1 | 37.2 | 31.3
O=C(c1cc2ccccc2[nH]1)N1C2CCC1CN(CCOC(c1ccc(F)cc1)c1ccc(F)cc1)CC2 (configuration not stated) | > 100 | > 100 | > 100 | > 100 | > 100 | > 100 | > 100 | > 100 | > 100 | > 100 | > 100
CCCCc1ccc(Nc2nc(Cl)c3ncn(COCCOC(C)=O)c3n2)cc1 | 51.2 | 35.8 | 45.6 | 30.8 | 52.7 | 61.8 | 50.7 | 33.9 | 30.9 | 39.8 | 35.1
NC(CSCc1ccc(I)cc1)C(=O)O (configuration not stated) | > 100 | > 100 | > 100 | > 100 | > 100 | > 100 | > 100 | > 100 | > 100 | > 100 | > 100
O=c1ccn(CC2(CO)CCCC2)c(=O)[nH]1 | > 100 | > 100 | > 100 | > 100 | > 100 | > 100 | > 100 | > 100 | > 100 | > 100 | > 100
CCCCCCCCCCCCCCCCCCNc1ccn(C2OC(COP(=O)(O)OCC3OC(n4cc(C)c(=O)[nH]c4=O)CC3F)C(O)C2O)c(=O)n1 (configuration not stated) | 46.7 | 11 | 19.3 | 33.1 | 50.3 | 15.4 | 59.5 | 41.9 | 44.9 | 39.7 | 9.9
CCOC(=O)CCC(NC(=O)Cc1ccc(Nc2nc3ccccc3nc2-c2cccs2)cc1)C(=O)OCC (configuration not stated) | > 100 | > 100 | > 100 | > 100 | > 100 | > 100 | > 100 | > 100 | > 100 | > 100 | 84.5
CN(C)CCCC1c2ccccc2Oc2ccc(C(F)(F)F)cc21 (configuration not stated) | 29.8 | 28.2 | 28.1 | 31 | 31.8 | 22.7 | 23.1 | 31.6 | 21 | 28.2 | 29.3
CC(=O)Nc1ccc(NS(=O)(=O)c2ccc3nc(C)n(NS(=O)(=O)c4ccc(NC(C)=O)cc4)c(=O)c3c2)cc1 | > 100 | > 100 | > 100 | > 100 | > 100 | > 100 | > 100 | > 100 | > 100 | > 100 | > 100
CN(C)CCNc1nc2ccccc2c2c1CCCC2 | > 100 | > 100 | 32.3 | 35.8 | > 100 | 61.8 | 55.7 | 31.1 | 32.4 | 89.2 | 29.7
